{"source": "PubChem BioAssay AID1963828", "about": "(Molecular Pharmacology Branch, DTP, NCI, 2024);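 note: spheroids exposed to compounds for 7 days before readout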;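 for viability, T/C: 100% = DMSO vehicle control viability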", "test_system": "991263-137-R1-J2-PDC complex spheroid viability", "test": "Anticancer human tumor 991263-137-R1-J2-PDC patient-derived colon adenocarcinoma cell line growth inhibition [POLQ]", "settings": "for IC50: curve of first compound; for viability, T/C: stronger effect = lower value", "summary_of_the_method": "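Complex spheroid viability model combining PDC tumour cells with endothelial (HUVEC) and MSC stromal cells. Novobiocin, ART-558 or RP6685 were tested singly and in combination with standard and investigational anticancer drugs. Each was titrated in half-log steps from near clinical Cmax, or from 10 microM where Cmax was unknown.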", "data": [{"smiles": "CC(=O)O[C@H]1C(=O)[C@@]2(C)[C@H]([C@H](OC(=O)c3ccccc3)[C@]3(O)C[C@H](OC(=O)[C@H](O)[C@@H](NC(=O)c4ccccc4)c4ccccc4)C(C)=C1C3(C)C)[C@]1(OC(C)=O)CO[C@@H]1C[C@@H]2O", "note": "+ Nc1ccc(C#CCN(C(=O)Cc2ncc(C(F)(F)F)cc2C(F)(F)F)c2ccc(F)cc2)nn1", "values": [{"measurement": "IC50", "setting": "second compound 0.0316 µM", "value": "> 3", "unit": "µM"}, {"measurement": "IC50", "setting": "second compound 0.1 µM", "value": "> 3", "unit": "µM"}, {"measurement": "IC50", "setting": "second compound 0.316 µM", "value": 2.53, "unit": "µM"}, {"measurement": "IC50", "setting": "second compound 1 µM", "value": "> 3", "unit": "µM"}, {"measurement": "IC50", "setting": "second compound 3.16 µM", "value": "> 3", "unit": "µM"}, {"measurement": "IC50", "setting": "second compound 10 µM", "value": "> 3", "unit": "µM"}, {"measurement": "viability, T/C", "setting": "second compound 0.0316 µM, first compound 0.00949 µM", "value": 98.6, "unit": "%"}, {"measurement": "viability, T/C", "setting": "second compound 0.0316 µM, first compound 0.03 µM", "value": 89.7, "unit": "%"}, {"measurement": "viability, T/C", "setting": "second compound 0.0316 µM, first compound 0.0949 µM", "value": 84.9, "unit": "%"}, {"measurement": "viability, T/C", "setting": "second compound 0.0316 µM, first compound 0.3 µM", "value": 77.8, "unit": "%"}, {"measurement": "viability, T/C", "setting": "second compound 0.0316 µM, first compound 0.949 µM", "value": 55.3, "unit": "%"}, {"measurement": "viability, T/C", "setting": "second compound 0.0316 µM, first compound 3 µM", "value": 56.6, "unit": "%"}, {"measurement": "viability, T/C", "setting": "second compound 0.1 µM, first compound 0.00949 µM", "value": 93.9, "unit": "%"}, {"measurement": "viability, T/C", "setting": "second compound 0.1 µM, first compound 0.03 µM", "value": 96.5, "unit": "%"}, {"measurement": "viability, T/C", "setting": "second compound 0.1 µM, first compound 0.0949 µM", "value": 87.9, "unit": "%"}, {"measurement": "viability, T/C", "setting": "second compound 0.1 µM, first compound 0.3 µM", "value": 85.8, "unit": "%"}, {"measurement": "viability, T/C", "setting": "second compound 0.1 µM, first compound 0.949 µM", "value": 55.1, "unit": "%"}, {"measurement": "viability, T/C", "setting": "second compound 0.1 µM, first compound 3 µM", "value": 50.9, "unit": "%"}, {"measurement": "viability, T/C", "setting": "second compound 0.316 µM, first compound 0.00949 µM", "value": 93.9, "unit": "%"}, {"measurement": "viability, T/C", "setting": "second compound 0.316 µM, first compound 0.03 µM", "value": 95.6, "unit": "%"}, {"measurement": "viability, T/C", "setting": "second compound 0.316 µM, first compound 0.0949 µM", "value": 85.3, "unit": "%"}, {"measurement": "viability, T/C", "setting": "second compound 0.316 µM, first compound 0.3 µM", "value": 80, "unit": "%"}, {"measurement": "viability, T/C", "setting": "second compound 0.316 µM, first compound 0.949 µM", "value": 58, "unit": "%"}, {"measurement": "viability, T/C", "setting": "second compound 0.316 µM, first compound 3 µM", "value": 48.9, "unit": "%"}, {"measurement": "viability, T/C", "setting": "second compound 1 µM, first compound 0.00949 µM", "value": 92.5, "unit": "%"}, {"measurement": "viability, T/C", "setting": "second compound 1 µM, first compound 0.03 µM", "value": 96.9, "unit": "%"}, {"measurement": "viability, T/C", "setting": "second compound 1 µM, first compound 0.0949 µM", "value": 98, "unit": "%"}, {"measurement": "viability, T/C", "setting": "second compound 1 µM, first compound 0.3 µM", "value": 66.4, "unit": "%"}, {"measurement": "viability, T/C", "setting": "second compound 1 µM, first compound 0.949 µM", "value": 57.7, "unit": "%"}, {"measurement": "viability, T/C", "setting": "second compound 1 µM, first compound 3 µM", "value": 51.7, "unit": "%"}, {"measurement": "viability, T/C", "setting": "second compound 3.16 µM, first compound 0.00949 µM", "value": 90.2, "unit": "%"}, {"measurement": "viability, T/C", "setting": "second compound 3.16 µM, first compound 0.03 µM", "value": 87.1, "unit": "%"}, {"measurement": "viability, T/C", "setting": "second compound 3.16 µM, first compound 0.0949 µM", "value": 68.7, "unit": "%"}, {"measurement": "viability, T/C", "setting": "second compound 3.16 µM, first compound 0.3 µM", "value": 60.6, "unit": "%"}, {"measurement": "viability, T/C", "setting": "second compound 3.16 µM, first compound 0.949 µM", "value": 51.4, "unit": "%"}, {"measurement": "viability, T/C", "setting": "second compound 3.16 µM, first compound 3 µM", "value": 50.6, "unit": "%"}, {"measurement": "viability, T/C", "setting": "second compound 10 µM, first compound 0.00949 µM", "value": 84.6, "unit": "%"}, {"measurement": "viability, T/C", "setting": "second compound 10 µM, first compound 0.03 µM", "value": 72, "unit": "%"}, {"measurement": "viability, T/C", "setting": "second compound 10 µM, first compound 0.0949 µM", "value": 53.8, "unit": "%"}, {"measurement": "viability, T/C", "setting": "second compound 10 µM, first compound 0.3 µM", "value": 58.1, "unit": "%"}, {"measurement": "viability, T/C", "setting": "second compound 10 µM, first compound 0.949 µM", "value": 49.5, "unit": "%"}, {"measurement": "viability, T/C", "setting": "second compound 10 µM, first compound 3 µM", "value": 50.2, "unit": "%"}]}]}
